The source of these data is patent publication US12565514B2, “Nucleic acid containing perfluoroalkyl group, and method for its production” (AGC Inc., priority 2019, dated 2026).

{C5-PFC} = N[C5-PFC] unit carrying a C5 perfluoroalkyl group, added by phosphoramidite

This data set concerns HeLa cells. The data set can be described thus: Cellular uptake of fluorescein-modified nucleic acids by flow cytometry. The class given is cell-based. To be noted: single-stranded nucleic acid with fluorescein at 3′-end, 2.5 μM in DMEM, incubated 4 or 24 hours. Here is the method:
HeLa cells were cultured in Dulbecco's modified Eagle's medium (DMEM, Thermo Fischer Scientific) supplemented with 10% FBS and 0.5% penicillin/streptomycin in a humidified atmosphere (5 volume % CO2) at 37° C. Cells for image analysis were cultured in a 35 mm glass bottom dish (manufactured by IWAKI).
HeLa cells were seeded in 12-well plates at a density of 10^5 cells/well and cultured. On the day after seeding, the medium in each well was replaced with DMEM medium (1 mL) containing DNA (2.5 μM) modified with fluorescein-bound N[PFC] or N[PFPE], and incubated for 4 or 24 hours. Then, the cell layer in the wells was washed twice with PBS, and the cells were detached by treatment with 0.05% (w/v) trypsin (200 μL) at 37° C. for 5 min. The recovered cells were suspended in DMEM (600 μL). The cell suspension was separated by centrifugation process (400G, 3 min), and PBS/1% BSA (500 μL) was added. The percentage of fluorescent cells and the average fluorescence intensity of this cell suspension were analyzed by a flow cytometer (“guava easyCyte8”, manufactured by Luminex).
In the case of double-stranded DNA, a sample was denatured at 100° C. and annealed by slowly bringing it down to room temperature.
The nucleic acid having fluorescein bonded to the 3′-end of the N[C8-PFC]-modified DNA synthesized in Example 2 was, as a single strand or as a double strand, added to the culture medium of HeLa cells and incubated, whereby the efficiency of cellular uptake was examined by flow cytometry.
The nucleic acid having fluorescein bonded to the 3′-end of the N[C5-PFPE]-modified DNA synthesized in Example 1 was, as a single strand, added to the culture medium of HeLa cells and incubated, whereby the efficiency of cellular uptake was examined by flow cytometry.

For the substance “5′-(N[C5-PFC])2TTTTTCAGTTGACCATATA-3′ [F2]”, the “cellular uptake (flow cytometry)” value is reported as “higher cellular uptake than the fluorescein-modified nucleic acid of cont-DNA”.

Regarding “5′-(N[C5-PFC])5TTTTTCAGTTGACCATATA-3′ (DNA, 5' {C5-PFC}-{C5-PFC}-{C5-PFC}-{C5-PFC}-{C5-PFC}, backbone not given here) [F5]”, the “cellular uptake (flow cytometry)” value is “higher cellular uptake than the fluorescein-modified nucleic acid of cont-DNA”.

For “5′-(N[C5-PFC])TTTTCAGTTGACCATATA-3′ (DNA, 5' {C5-PFC}, backbone not given here) [F1]”, the “cellular uptake (flow cytometry)” value was “no difference from the fluorescein-modified nucleic acid of cont-DNA”.
